System: aRPE cells
Assay: intracellular ROS, GSH, MDA, antioxidant enzyme activity and survival in aRPE cells (basal, H2O2, BSO, Tempol)
Format: cell-based, human
Conditions: aRPE-PU cells, pretreatment 0.5 mmol/L, then 100 μM H2O2, p<0.05 vs H2O2
Experimental: The results were expressed as nmol/g protein. Total SOD activity was determined by Superoxide Dismutase Activity Colorimetric Assay Kit (Abcam) according to manufacturer's protocol. SOD activity was expressed as units/g protein. GSH-Px and CAT activities were measured by glutathione peroxidase cellular activity assay kit and catalase assay kit, both are purchased from Sigma.
Cultured aRPE cells were washed with PBS twice and treated with 100 μM H2O2. After 8 hours, the medium was removed, and the cells were collected for the subsequent experiments. […] In brief, cells were incubated with […] DCFH-DA in culture medium for 30 min at 37° C., followed by washing with PBS and flow cytometric analysis. The intracellular GSH content was detected by colorimetric assay using the GSH-400 kit (OXIS International, Portland, Oreg., USA). In the GSH-400 assay, 4-chloro-1-methyl-7-trifluoromethyl-quinolinium methylsulfate was added to react with all mercaptans in the sample, leading to the formation of substitution products, […]. Then, 30% sodium hydroxide was used to mediate a β-elimination reaction and specifically transform GSH-thioester into a chromophoricthione with a maximal absorbance wavelength at 400 nm that was detected by a spectrophotometer.

With `CC1(C)CC(O)CC(C)(C)N1[O]` [Tempol, 4-hydroxy-2,2,6,6-tetramethylpiperidinyloxy] the “H2O2-induced ROS production” value was “decreased” and the H2O2-induced cell death was “decreased”.
